Holding throughout (assay type): functional, cell-based
For one assay, the system named is RL95-2. As to the kind of experiment: cells. The settings on record: Homo sapiens.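 Further: RL95-2 growth inhibition determined through a cell viability readout.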
The test system of another assay is EW-12. As to the kind of experiment: SANGER: Inhibition of human EW-12 cell growth in a cell viability assay.
For a further assay, the system named is ECC12. As to the kind of experiment: cells. The following applies: Homo sapiens.
A further assay has as its system SKM-1. As to the kind of experiment: SANGER: Inhibition of human SKM-1 cell growth in a cell viability assay.
Another assay relates to NCI-H2227. As to the kind of experiment: cells. The settings on record: Homo sapiens.
A further assay concerns NCI-H128. As to the kind of experiment: SANGER: Inhibition of human NCI-H128 cell growth in a cell viability assay.
In another assay the test system is CRO-AP2. As to the kind of experiment: SANGER: Inhibition of human CRO-AP2 cell growth in a cell viability assay.
The test system of the next assay is NCI-H838. As to the kind of experiment: cells. The settings on record: Homo sapiens.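 Further: growth inhibition of human NCI-H838 cells, read out by a cell viability assay.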
The test system of another assay is DMS-53. As to the kind of experiment: cells. The settings on record: Homo sapiens.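 Further: cell viability assay measuring growth inhibition of human DMS-53 cells.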
For a further assay, the system named is RT-4. As to the kind of experiment: SANGER: Inhibition of human RT4 cell growth in a cell viability assay.
The test system of a further assay is EW-7. As to the kind of experiment: SANGER: Inhibition of human EW-7 cell growth in a cell viability assay.
In another assay the test system is C-4-II. As to the kind of experiment: SANGER: Inhibition of human C-4-II cell growth in a cell viability assay.
The next assay deals with NCI-H1618. As to the kind of experiment: cells. The following applies: Homo sapiens.
The subject of a further assay is COLO 205. As to the kind of experiment: cells. The following applies: Homo sapiens.
Another assay concerns Caov-4. As to the kind of experiment: cells. The following applies: Homo sapiens.
The next assay has as its system MFE-296. As to the kind of experiment: SANGER: Inhibition of human MFE-296 cell growth in a cell viability assay.
Another assay concerns SK-CO-1. As to the kind of experiment: cells. The following applies: Homo sapiens.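 Further: growth inhibition of SK-CO-1 cells, determined by a viability readout.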
The test system of the next assay is Caov-3 cell line. As to the kind of experiment: cells. The settings on record: Homo sapiens.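 Further: cell growth inhibition read out by a viability assay.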
The next assay has as its system HCC1143. As to the kind of experiment: cells. The settings on record: Homo sapiens.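 Further: growth inhibition of human HCC1143 cells, read out with a cell viability assay.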
For a further assay, the system named is SNG-M. As to the kind of experiment: cells. The following applies: Homo sapiens.
For the next assay, the system named is CCF-STTG1. As to the kind of experiment: cells. The settings on record: Homo sapiens.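 Further: growth inhibition of human CCF-STTG1 cells, determined with a cell viability read-out.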
The subject of the next assay is SNU-475. As to the kind of experiment: cells. The settings on record: Homo sapiens.
The next assay has as its system MES-SA. As to the kind of experiment: cells. The following applies: Homo sapiens.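 Further: growth inhibition of human MES-SA cells, read out with a cell viability assay.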
The next assay deals with IPC-298. As to the kind of experiment: SANGER: Inhibition of human IPC-298 cell growth in a cell viability assay.
The subject of a further assay is DV-90. As to the kind of experiment: cells. The following applies: Homo sapiens.
The subject of another assay is TT. As to the kind of experiment: cells. The following applies: Homo sapiens.
The subject of another assay is NCI-H2107. As to the kind of experiment: SANGER: Inhibition of human NCI-H2107 cell growth in a cell viability assay.
The subject of another assay is KP-N-RT-BM-1. As to the kind of experiment: SANGER: Inhibition of human KP-N-RT-BM-1 cell growth in a cell viability assay.
The next assay deals with CP67-MEL. As to the kind of experiment: SANGER: Inhibition of human CP67-MEL cell growth in a cell viability assay.
The next assay deals with ZR-75-30. As to the kind of experiment: cells. The following applies: Homo sapiens.
Another assay deals with TI-73. As to the kind of experiment: cells. The following applies: Homo sapiens.
Another assay deals with D-423MG. As to the kind of experiment: cells. The settings on record: Homo sapiens.
The next assay deals with NCI-H1048. As to the kind of experiment: cells. The following applies: Homo sapiens.
For the next assay, the system named is H9. As to the kind of experiment: cells. The following applies: Homo sapiens.
Another assay has as its system NCI-H1666. As to the kind of experiment: cells. The settings on record: Homo sapiens.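 Further: growth inhibition of the cell line, read out with a cell viability assay.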
The next assay deals with SW 1116. As to the kind of experiment: cells. The following applies: Homo sapiens.
Another assay has as its system NCI-H1975. As to the kind of experiment: cells. The following applies: Homo sapiens.
The subject of the next assay is CFPAC-1. As to the kind of experiment: cells. The settings on record: Homo sapiens.
A further assay relates to OC-314. As to the kind of experiment: cells. The settings on record: Homo sapiens.
Another assay deals with SW900. As to the kind of experiment: cells. The settings on record: Homo sapiens.
Another assay deals with TGBC11TKB. As to the kind of experiment: cells. The settings on record: Homo sapiens.
A further assay deals with ECC10. As to the kind of experiment: cells. The settings on record: Homo sapiens.
Another assay has as its system BALL-1. As to the kind of experiment: cells. The following applies: Homo sapiens.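 Further: growth inhibition of BALL-1 cells, read out with a cell viability assay.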
Another assay deals with RH-18. As to the kind of experiment: cells. The settings on record: Homo sapiens, Rh18.
In a further assay the test system is BT-549. As to the kind of experiment: cells. The settings on record: Homo sapiens.
For another assay, the system named is EPLC-272H. As to the kind of experiment: cells. The settings on record: Homo sapiens.
For another assay, the system named is NCI-H2029. As to the kind of experiment: cells. The settings on record: Homo sapiens.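 Further: Read-out is a viability assay on the cultured cells, and IC50 is the concentration that suppresses cell growth.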
In another assay the test system is YH-13. As to the kind of experiment: cells. The following applies: Homo sapiens.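 Further: cell viability readout of growth suppression in the human YH-13 cell line.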
A further assay relates to A549. As to the kind of experiment: cells. The following applies: Homo sapiens.
The test system of a further assay is NCI-H2291. As to the kind of experiment: cells. The following applies: Homo sapiens.
A further assay deals with H-EMC-SS. As to the kind of experiment: cells. The following applies: Homo sapiens.
Another assay has as its system NBsusSR. As to the kind of experiment: cells. The settings on record: Homo sapiens.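 Further: growth inhibition of the human cell line, read out with a cell viability assay.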
A further assay concerns D-566MG. As to the kind of experiment: cells. The following applies: Homo sapiens.

As a reminder, the IC50 is the concentration that gives 50% inhibition. The low end stands for greater potency, the high end for weaker potency.

The structures appear in SMILES notation. Where only a bound is given, the exact number is not on record here.

Description for A549: SANGER: Inhibition of human A549 cell growth in a cell viability assay.
Description for BALL-1: SANGER: Inhibition of human BALL-1 cell growth in a cell viability assay.
Description for BT-549: SANGER: Inhibition of human BT-549 cell growth in a cell viability assay.
Description for CCF-STTG1: SANGER: Inhibition of human CCF-STTG1 cell growth in a cell viability assay.
Description for CFPAC-1: SANGER: Inhibition of human CFPAC-1 cell growth in a cell viability assay.
Description for COLO 205: SANGER: Inhibition of human COLO-205 cell growth in a cell viability assay.
Description for Caov-3 cell line: SANGER: Inhibition of human Caov-3 cell growth in a cell viability assay.
Description for Caov-4: SANGER: Inhibition of human Caov-4 cell growth in a cell viability assay.
Description for D-423MG: SANGER: Inhibition of human D-423MG cell growth in a cell viability assay.
Description for DMS-53: SANGER: Inhibition of human DMS-53 cell growth in a cell viability assay.
Description for DV-90: SANGER: Inhibition of human DV-90 cell growth in a cell viability assay.
Description for ECC10: SANGER: Inhibition of human ECC10 cell growth in a cell viability assay.
Description for ECC12: SANGER: Inhibition of human ECC12 cell growth in a cell viability assay.
Description for EPLC-272H: SANGER: Inhibition of human EPLC-272H cell growth in a cell viability assay.
Description for H-EMC-SS: SANGER: Inhibition of human H-EMC-SS cell growth in a cell viability assay.
Description for H9: SANGER: Inhibition of human H9 cell growth in a cell viability assay.
Description for HCC1143: SANGER: Inhibition of human HCC1143 cell growth in a cell viability assay.
Description for MES-SA: SANGER: Inhibition of human MES-SA cell growth in a cell viability assay.
Description for NBsusSR: SANGER: Inhibition of human NBsusSR cell growth in a cell viability assay.
Description for NCI-H1048: SANGER: Inhibition of human NCI-H1048 cell growth in a cell viability assay.
Description for NCI-H1618: SANGER: Inhibition of human NCI-H1618 cell growth in a cell viability assay.
Description for NCI-H1666: SANGER: Inhibition of human NCI-H1666 cell growth in a cell viability assay.
Description for NCI-H1975: SANGER: Inhibition of human NCI-H1975 cell growth in a cell viability assay.
Description for NCI-H2029: SANGER: Inhibition of human NCI-H2029 cell growth in a cell viability assay.
Description for NCI-H2227: SANGER: Inhibition of human NCI-H2227 cell growth in a cell viability assay.
Description for NCI-H2291: SANGER: Inhibition of human NCI-H2291 cell growth in a cell viability assay.
Description for NCI-H838: SANGER: Inhibition of human NCI-H838 cell growth in a cell viability assay.
Description for OC-314: SANGER: Inhibition of human OC-314 cell growth in a cell viability assay.
Description for RH-18: SANGER: Inhibition of human RH-18 cell growth in a cell viability assay.
Description for RL95-2: SANGER: Inhibition of human RL95-2 cell growth in a cell viability assay.
Description for SK-CO-1: SANGER: Inhibition of human SK-CO-1 cell growth in a cell viability assay.
Description for SNG-M: SANGER: Inhibition of human SNG-M cell growth in a cell viability assay.
Description for SNU-475: SANGER: Inhibition of human SNU-475 cell growth in a cell viability assay.
Description for SW 1116: SANGER: Inhibition of human SW1116 cell growth in a cell viability assay.
Description for SW900: SANGER: Inhibition of human SW900 cell growth in a cell viability assay.
Description for TGBC11TKB: SANGER: Inhibition of human TGBC11TKB cell growth in a cell viability assay.
Description for TI-73: SANGER: Inhibition of human TI-73 cell growth in a cell viability assay.
Description for YH-13: SANGER: Inhibition of human YH-13 cell growth in a cell viability assay.
Description for ZR-75-30: SANGER: Inhibition of human ZR-75-30 cell growth in a cell viability assay.

Consider `Cc1ccc(NC(=O)c2cccc(C(C)(C)C#N)c2)cc1Nc1ccc2ncn(C)c(=O)c2c1`, for which the IC50 with RL95-2 is over 4000 nM; in the assay on EW-12, over 4000 nM; in the assay with ECC12, 1710 nM; in the assay with SKM-1, over 4000 nM; in the assay with NCI-H2227, over 4000 nM; with NCI-H128, over 4000 nM. In the assay on CRO-AP2, this compound showed an IC50 of over 4000 nM.
On to `O=c1[nH]c2ccccc2n1C1CCN(Cc2ccc(-c3nc4cc5[nH]cnc5cc4nc3-c3ccccc3)cc2)CC1`, for which the IC50 in the assay on RL95-2, with NCI-H838, in the assay with DMS-53, in the assay with RT-4, in the assay with EW-7 and with C-4-II was over 2560 nM in each case. In addition, the IC50 in the assay on NCI-H1618 is over 2560 nM; in the assay with ECC12 it was over 2560 nM; with COLO 205, 2000 nM; in the assay with Caov-4, over 2560 nM; in the assay on MFE-296, 1380 nM; with SK-CO-1, over 2560 nM. The IC50 with Caov-3 cell line, in the assay with HCC1143, in the assay with SNG-M, with CCF-STTG1, in the assay with NCI-H2227 and with SNU-475 was over 2560 nM in each case. For the same compound, the IC50 in the assay with MES-SA, in the assay on IPC-298, in the assay with DV-90 and in the assay with TT was over 2560 nM throughout.
With `Fc1cc(-c2cc[nH]/c(=N/c3ccc(-n4cnc(N5CCOCC5)n4)cc3)n2)cc(N2CCOCC2)c1`, the IC50 was determined as 660 nM in the assay on RL95-2; 416 nM in the assay on NCI-H838; 1080 nM with DMS-53; 3560 nM in the assay with RT-4; 562 nM with EW-7; 405 nM in the assay with C-4-II. The IC50 with NCI-H1618 was 1820 nM; in the assay on ECC12, 324 nM; with COLO 205, 152 nM; with Caov-4, over 5120 nM; in the assay with MFE-296, 174 nM; in the assay on SK-CO-1 it was 912 nM. For the same compound, the IC50 was over 5120 nM with Caov-3 cell line; 954 nM with HCC1143; 642 nM in the assay on SNG-M; 624 nM in the assay with CCF-STTG1; over 5120 nM with NCI-H2227; over 5120 nM in the assay on SNU-475. In addition, the IC50 worked out at 717 nM in the assay on MES-SA, 854 nM in the assay with IPC-298, 958 nM with DV-90 and 3550 nM with TT.
As to `CCn1c(-c2nonc2N)nc2cnc(Oc3cccc(NC(=O)c4ccc(OCCN5CCOCC5)cc4)c3)cc21` [GSK-269962A], the IC50 in the assay with RL95-2, with EW-12, in the assay with NCI-H2107, in the assay on ECC12, in the assay with SKM-1 and in the assay on NCI-H2227 was over 2500 nM each time. In addition, the values for the IC50 in the assay with NCI-H128 and with CRO-AP2 were over 2500 nM and 2360 nM, respectively.
In the case of `Cc1[nH]c(/C=C2\C(=O)Nc3ccc(S(=O)(=O)Cc4c(Cl)cccc4Cl)cc32)c(C)c1C(=O)N1CCC[C@@H]1CN1CCCC1` [PHA-665752], the IC50 in the assay on RL95-2, with EW-12, with SKM-1, in the assay on KP-N-RT-BM-1, in the assay with CP67-MEL and in the assay with NCI-H128 was over 2000 nM each time. Moreover, the IC50 with CRO-AP2 was over 2000 nM.
In the case of `CC(C)=CC[C@@H](O)C1=CC(=O)c2c(O)ccc(O)c2C1=O` [SHIKONIN], the IC50 in the assay with RL95-2 is 720 nM; with NCI-H838, over 16000 nM; in the assay with DMS-53, over 16000 nM; in the assay with RT-4, 10100 nM; with EW-7 it was 1290 nM; in the assay on C-4-II, 588 nM. For the same compound, the IC50 was 2020 nM in the assay on NCI-H1618; 9650 nM in the assay with ECC12; 538 nM with COLO 205; 1880 nM with Caov-4; 662 nM with MFE-296; 2050 nM in the assay with SK-CO-1. Besides, the IC50 amounted to 767 nM with Caov-3 cell line; 530 nM with HCC1143; 272 nM in the assay on SNG-M; 768 nM in the assay with CCF-STTG1; 4890 nM in the assay with NCI-H2227; 14100 nM in the assay on SNU-475. Further, the IC50 with MES-SA is 41.3 nM; in the assay with IPC-298, over 16000 nM; in the assay on DV-90, over 16000 nM; with TT, 1700 nM.
Consider `CC[C@]1(O)C[C@@H]2CN(CCc3c([nH]c4ccccc34)[C@@](C(=O)OC)(c3cc4c(cc3OC)N(C)[C@H]3[C@@](O)(C(=O)OC)[C@H](OC(C)=O)[C@]5(CC)C=CCN6CC[C@]43[C@@H]65)C2)C1` [VINBLASTINE], for which the IC50 with ZR-75-30 is over 100 nM; with TI-73, 3.21 nM; in the assay with D-423MG, 8.64 nM; in the assay on NCI-H1048, 10.1 nM; in the assay with H9, 2.25 nM; with NCI-H1666, 20.1 nM. Moreover, the IC50 in the assay on SW 1116 was over 100 nM; with NCI-H1975, 24.2 nM; in the assay with CFPAC-1, 93.2 nM; with OC-314 it was 2.22 nM; in the assay with SW900, 25.4 nM; in the assay on TGBC11TKB it was 15.8 nM. The IC50 was 21.2 nM in the assay with ECC10; over 100 nM in the assay on BALL-1; over 100 nM with RH-18; 7.98 nM in the assay on BT-549; 10.8 nM in the assay with EPLC-272H; over 100 nM with NCI-H2029. Further, the IC50 in the assay on YH-13 was 3.7 nM; with A549, 4.95 nM; with NCI-H2291 it was over 100 nM; with H-EMC-SS it was over 100 nM; in the assay on NBsusSR it was 3.23 nM; in the assay with D-566MG, 2.04 nM.

The values are drawn from ChEMBL document CHEMBL1201861, “Genomics of Drug Sensitity in Cancer screening data, Wellcome Trust Sanger Institute”.
